# Experimental data: ChEMBL document CHEMBL6182926, “Design, Synthesis, and Biological Activity Evaluation of Deuterated Diphenyl Azole Alcohol-Based CYP51 Inhibitors” (J Med Chem, 2025)
# How the values were obtained:
# Assay type in all cases: functional
# [1] = system: Candida albicans; assay: Antifungal activity against Candida albicans SC 5314 assessed as inhibition of visible growth
# [2] = system: Candida albicans; assay: Antifungal activity against Candida albicans CPCC 400616 assessed as inhibition of visible growth
# [3] = system: Candida tropicalis; assay: Antifungal activity against Candida tropicalis CGMCC 2.3739 assessed as inhibition of visible growth
# [4] = system: Candida parapsilosis; assay: Antifungal activity against Candida parapsilosis GIM 2.190 assessed as inhibition of visible growth; conditions: Lodderomyces parapsilosis
# [5] = system: Nakaseomyces glabratus; assay: Antifungal activity against Clinical isolate Candida glabrata assessed as inhibition of visible growth
# [6] = system: Pichia kudriavzevii; assay: Antifungal activity against Candida krusei AS 2.1045 assessed as inhibition of visible growth
# [7] = system: Cryptococcus neoformans; assay: Antifungal activity against Cryptococcus neoformans CGMCC 2.3161 assessed as inhibition of visible growth
MIC80 [1] [µg/mL],MIC80 [2] [µg/mL],MIC80 [3] [µg/mL],MIC80 [4] [µg/mL],MIC80 [5] [µg/mL],MIC80 [6] [µg/mL],MIC80 [7] [µg/mL],SMILES
0.025,0.025,0.006,0.05,0.2,0.2,0.4,CN(Cc1cnc(-c2ccc(C(F)(F)F)cc2)s1)CC(O)(Cn1cncn1)c1ccc(F)cc1F (stereo not drawn)
0.025,0.025,0.006,0.05,0.2,0.1,0.1,CN(Cc1cnc(-c2ccc(OC(F)(F)F)cc2)s1)CC(O)(Cn1cncn1)c1ccc(F)cc1F (stereo not drawn)
0.006,0.006,0.006,0.006,0.012,0.012,0.012,C[C@@H](N(C)Cc1ccc(-c2ccc(Cl)cc2)cc1)[C@](O)(Cn1cncn1)c1ccc(F)cc1F
0.012,0.025,0.025,0.025,0.8,0.2,0.1,CN(Cc1ccc(-c2ccccc2)cn1)CC(O)(Cn1cncn1)c1ccc(F)cc1F (stereo not drawn)
0.012,0.012,0.012,0.006,0.05,0.05,0.025,CN(Cc1ccc(-c2ccc(C(F)(F)F)cc2)cn1)CC(O)(Cn1cncn1)c1ccc(F)cc1F (stereo not drawn)
0.006,0.012,0.006,0.006,0.2,0.05,0.1,CN(Cc1ccc(-c2ccc(Cl)cc2)s1)CC(O)(Cn1cncn1)c1ccc(F)cc1F (stereo not drawn)
0.012,0.012,0.012,0.006,0.025,0.025,0.05,CN(Cc1ccc(-c2ccc(C(F)(F)F)cc2)cc1)CC(O)(Cn1cncn1)c1ccc(F)cc1F (stereo not drawn)
0.012,0.012,0.012,0.006,0.05,0.025,0.025,CN(Cc1ccc(-c2ccc(OC(F)(F)F)cc2)cn1)CC(O)(Cn1cncn1)c1ccc(F)cc1F (stereo not drawn)
0.012,0.025,0.012,0.012,0.8,0.4,0.1,CN(Cc1ccc(-c2ccccc2F)cn1)CC(O)(Cn1cncn1)c1ccc(F)cc1F (stereo not drawn)

# The remaining lines, values behind:
SMILES,MIC80 [1] [µg/mL],MIC80 [2] [µg/mL],MIC80 [3] [µg/mL],MIC80 [4] [µg/mL],MIC80 [5] [µg/mL],MIC80 [6] [µg/mL],MIC80 [7] [µg/mL]
CN(Cc1ccc(-c2cccc(F)c2)cn1)CC(O)(Cn1cncn1)c1ccc(F)cc1F (stereo not drawn),0.025,0.025,0.012,0.012,0.8,0.2,0.05
CN(Cc1cnc(-c2ccc(Cl)cc2)s1)CC(O)(Cn1cncn1)c1ccc(F)cc1F (stereo not drawn),0.2,0.2,0.4,0.4,1.6,1.6,1.6
CN(Cc1ccc(-c2ccc(Cl)cc2F)cc1)CC(O)(Cn1cncn1)c1ccc(F)cc1F (stereo not drawn),0.006,0.006,0.006,0.006,0.025,0.012,0.012
CN(Cc1ccc(-c2ccc(F)cc2)cn1)CC(O)(Cn1cncn1)c1ccc(F)cc1F (stereo not drawn),0.012,0.012,0.012,0.012,0.4,0.05,0.1
CN(Cc1ccc(-c2ccc(C(C)(C)C)cc2)cn1)CC(O)(Cn1cncn1)c1ccc(F)cc1F (stereo not drawn),0.012,0.025,0.006,0.012,0.2,0.1,0.012
CN(Cc1ccc(-c2ccc(-c3ccccc3)cc2)cn1)CC(O)(Cn1cncn1)c1ccc(F)cc1F (stereo not drawn),0.012,0.012,0.012,0.012,0.1,0.1,0.05
CN(Cc1ccc(-c2ccc(C(F)(F)F)cc2)nc1)CC(O)(Cn1cncn1)c1ccc(F)cc1F (stereo not drawn),0.012,0.012,0.012,0.006,0.2,0.025,0.025
CN(Cc1ccc(-c2ccc(Cl)cc2)cn1)CC(O)(Cn1cncn1)c1ccc(F)cc1F (stereo not drawn),0.012,0.012,0.012,0.006,0.05,0.05,0.025
CN(Cc1ccc(-c2ccc(Cl)c(F)c2)cc1)CC(O)(Cn1cncn1)c1ccc(F)cc1F (stereo not drawn),0.006,0.006,0.006,0.006,0.025,0.012,0.012
CN(Cc1ccc(-c2ccccc2Cl)cn1)CC(O)(Cn1cncn1)c1ccc(F)cc1F (stereo not drawn),0.025,0.1,0.012,0.025,0.8,0.4,0.1
